Results taken from patent publication US12076331B2, “Inositol derivatives for use in pathological crystallization” (ETH Zurich, priority 2015, dated 2024).

How the values were obtained:
[1] = test system: RPTEC/TERT 1 human proximal tubule cells; test: Imaging assay of CaP adhesion/deposition and cellular changes on RPTEC monolayers; format: cell-based
Text: (A) Heatmap and hierarchical clustering of extracted image features. (B) Selected single features describing cellular changes upon increasing (OEG2)2-IP4 concentrations are depicted. Total cell count, dead cell count, single cell area and single cell solidity, a measure of cell compactness, are shown. (C) Selected single features describing changes in the CaP deposition and membrane pattern upon increasing (OEG2)2-IP4 concentrations are depicted. The total area of the binary calcein staining, colorimetric quantification of calcium content extracted from the monolayer, the maximum intensity of the calcein fluorescence, structural similarity index metric (SSIM) and the correlation of the CellMask channel image are shown. (D) Example brightfield, calcein, CellMask and EthD channel images and two zoomed-in regions of interests (ROI) of RPTEC treated with 13 μM (OEG2)2-IP4 are shown. Mean scaled values per individual experiment are plotted (N=3). Pos.ctrl presents treatment with 5/7 mM Ca/P, neg.ctrl presents medium without Ca/P spiking (=1/1 mM Ca/P present in normal cell medium). Mean of three individual experiments and SD is plotted as grey horizontal and vertical line respectively, one-way ANOVA with Dunnet's multiple comparison between each concentration to pos. ctrl was performed (* p<0.01).
RPTEC/TERT 1 monolayers at confluence were treated with medium spiked with 7 mM disodium phosphate, 5 mM calcium chloride and compound and were incubated for 24 h. The amount of CaP deposits and the extent of cell injury were detected by calcein and EthD staining, respectively. Fluorescence images were quantified using Matlab. Quantification of the area covered with CaP deposition on RPTEC monolayers with (A) OEG2-IP5, (B) OEG11-IP5, (C) (OEG2)2-IP4, and (D) OEG8-(IP5)2 treatment. (N=3, mean+SD, one-way ANOVA with Dunnett's multiple comparison, * p<0.05, ** p<0.01, *** p<0.001).
RPTEC/TERT 1 human proximal tubule cells (RPTEC) were cultured in T75 tissue culture flasks using ProxUp basal medium mixed with ProxUp supplements at 37° C. and 5% CO2 according to manufacturer's recommendations. Cells were used up to passage 30 and regularly tested for Mycoplasma infections. For experiments, RPTEC were cultured in 24-well plates at a seeding density of 150′000 cells/cm^2. Cell viability assessment and cell counting before seeding was performed using an automated cell counter (BioRad TC 20, Hercules, CA, USA).
For the comparison of selected IP6 analogues, ProxUp basal medium was prepared with the selected inhibitor and added to each well. Then, CaP precipitation was induced by direct addition of first, phosphate and second, calcium. Final concentrations of 7 mM phosphate and 5 mM calcium were used. Cells were incubated for 24 h at 37° C. and 5% CO2. Spiked medium was removed, and cells were washed twice with PBS before staining.
For staining, ProxUp basal medium was mixed with calcein (500 nM final concentration), EthD (6 μM final concentration), CellMask stain ([…]) and Hoechst 33342. Staining mixture was added to RPTEC and cells were incubated for 30 min in the dark at 37° C. and 5% CO2. Staining solution was removed, cells were washed with PBS once and ProxUp basal medium was added. Cells were immediately imaged after staining. Images were obtained by epifluorescence microscopy at 37° C., using a Leica CTR6000 microscope. For quantification 3 wells/condition were prepared and 3 images/well were taken. For preliminary adhesion experiments images were taken with a 10× objective, for the imaging assay 20× objective images were taken.
Multichannel images were saved as individual channel images in 8-bit tiff format. For analysis Hoechst channel images were thresholded using the triangle threshold. Touching nuclei of the binary image were further segmented using the watershed algorithm with the distance transform of the binary image as input and local maxima thereof as seeds. […]

[2] = test system: RPTEC/TERT 1 human proximal tubule cells; test: RNA sequencing of Ca/P treated RPTEC; format: cell-based; conditions: 50 μM, 5/7 mM Ca/P, 24 h
Text: A) Heatmap and hierarchical clustering of relative gene expression levels determined by RNA sequencing. […] Weighted set coverage of gene ontology terms and their respective enrichment score for differentially expressed genes in the Ca/P vs. medium control group is plotted (all FDR≤0.05). D) Normalized count of gene transcripts (FPKM—fragments per kilobase of exon model per million reads mapped) involved in inflammatory responses, ECM composition, cell proliferation and tissue homeostasis of the different treatment groups is plotted (mean+SD, N=3).
Cells were cultured as described in the imaging assay and treated with a medium control (ProxUp basal medium containing 1/1 mM Ca/P), 5/7 mM Ca/P, 5/7 mM Ca/P in medium containing 50 µM (OEG2)2-IP4 or 50 µM (OEG2)2-IP4 in medium for 24 h. Total RNA was extracted using the RNeasy kit (Quiagen) according to the manufacturer's instructions. Three wells per sample group were prepared and total RNA extracted of those 3 wells pooled. mRNA was purified and RNAseq library was prepared using the TrueSeq RNA kit (Illumina). […] Reads were aligned to the human reference genome GRCh38.p10 using the STAR tool (https://github.com/alexdobin/STAR) and transcripts quantified using the Kallisto program (42). […] For comparison of expression levels of the selected genes, the fragments per kilobase of exon model per million reads mapped (FPKM) were used. […]

[3] = previous study, Kletzmayr et al. 2020; cited from earlier work
[4] = 6-50 μM, 5/7 mM Ca/P, compared to the positive ctrl
[5] = RPTEC, 7 mM phosphate, 5 mM calcium, 24 h

For `COCCOCCO[C@@H]1C(OP(=O)(O)O)[C@H](OCCOCCOC)[C@@H](OP(=O)(O)O)C(OP(=O)(O)O)[C@H]1OP(=O)(O)O` (stereo partly drawn) [(OEG2)2-IP4], the “number of dead cells” value [1, 4] was “dose-dependently reduced”, the single cell area [1, 4] was “dose-dependently reduced” and the single cell solidity [1, 4] was “increased”. The “total cell count/field of view” value [1, 4] was “increased”, the “total CaP area” value ([1]; 6 and 13 μM, 5/7 mM Ca/P, compared to the positive ctrl) was “reduction” and the “concentration achieving complete inhibition of CaP adhesion” value [1, 5] was 50 µM. The “concentration down to which CaP adhesion was drastically reduced” value [1, 5] was 12.5 µM, the “Ca/P-induced change in gene expression profile” value [2] was “prevented” and the “efficacy on CaOx crystallization in solution” value [3] was “limited efficacy”.
